# Literature values as cited in patent US12054764B2, “High-throughput screens for exploring biological functions of microscale biological systems” (THE BROAD INSTITUTE, INC., priority 2017, dated 2024).
# System: E. coli
# Conditions: stated in the legend of FIG. 10 as the loading concentration in 2% ultra-low melt agarose droplets
structure (smiles),measurement,value
CC1(C)S[C@@H]2[C@H](NC(=O)[C@H](N)c3ccccc3)C(=O)N2[C@H]1C(=O)O [Ampicillin],minimum inhibitory concentration (MIC),5 µg/mL
